Row | melting point | SMILES
1 | 178 to 180 °C | Cc1ccc(S(=O)(=O)NCc2ccco2)cc1C(=O)O
2 | 89 to 91 °C | OC1C=C(c2ccc(Cl)cc2)CC1 (stereo not given)
3 | 142 to 144 °C | O=C(O)c1ccccc1NCCO
4 | 61 to 63 °C | O=S(=O)(Cl)c1cc(Br)cnc1Cl
5 | 219 to 221 °C | O=C1NCCCCC1Oc1ccc(O)cc1 (stereo not given)
6 | 183 to 185 °C | Cc1cc(C)nc(-n2nccc2N)n1
7 | 109 to 111 °C | CC(C)CNC(=O)c1cc(N)ccc1Cl
8 | 199 to 201 °C | Sc1ncccc1Br
9 | 234 to 236 °C | CNC1CCCCNC1=O (stereo not given)
10 | 174 to 176 °C | Cc1c(C(=O)O)cnn1-c1ccccn1
11 | 91 to 93 °C | O=C(c1ccc(Cl)cc1)c1ncccn1
12 | 138 to 140 °C | ClCc1cn(-c2ccc(Cl)c(Cl)c2)nn1
13 | 162 to 164 °C | COc1cc(C(=O)O)ccc1OCC(=O)N1CCOCC1
14 | 324 to 326 °C | O=C1CNC(=O)c2ccccc2N1
15 | 140 to 142 °C | O=C(O)CCc1ncc(-c2ccco2)o1
16 | 185 to 187 °C | O=C1OCCc2cnc3nc(C(F)(F)F)nn3c21
17 | 52 to 54 °C | CC(O)C(=O)Nc1ccccc1 (stereo not given)
18 | 76 to 78 °C | COC(=O)c1ccc(OC)cc1N
19 | 155 to 157 °C | Cc1ccc(-c2ccc(O)cc2)cc1
20 | 137 to 139 °C | Nc1nc(-c2ccccc2Cl)co1
21 | 167 to 169 °C | Cn1ccnc1-c1cc(N)[nH]n1
22 | 68 to 70 °C | CN(CCOc1ccccc1F)C(=O)CCl
23 | 68 to 70 °C | Cc1ccc(C#N)c(N2CCCC2)c1
24 | 188 to 190 °C | Cc1ccc(C)c(Sc2ncccc2C(=O)O)c1
25 | 156 to 158 °C | CC(C)c1ccc(-c2nc(CSc3nnc(N)[nH]3)cs2)cc1
26 | 217 to 219 °C | CC1CC(C)CN(S(=O)(=O)c2cccc(C(=O)O)c2)C1 (stereo not given)

Row | melting point | SMILES
27 | 231 to 233 °C | Sc1nnc(-c2sc3ccccc3c2Cl)o1
28 | 130 to 132 °C | Cc1ccc(C#N)nc1Br
29 | 40 to 42 °C | COC(=O)N1CCC(N)CC1
30 | 128 to 130 °C | CC(C)C(=O)Nc1cccc(F)c1C(=O)O
31 | 266 to 268 °C | Cn1c(=O)[nH]c2cnccc21
32 | 148 to 150 °C | CC1=NN(c2ccc(F)cc2)C(=O)C1
33 | 74 to 76 °C | COC(=O)C(CCl)NC(C)=O (stereo not given)
34 | 103 to 105 °C | CC(=O)c1sc(-c2ccc(Br)cc2)nc1C
35 | 71 to 73 °C | OC1CCCCC1c1ccc(F)cc1 (stereo not given)
36 | 143 to 145 °C | CN(C)c1ncc(Br)cc1C(=O)O
37 | 64 to 66 °C | Cc1ccccc1C1CC1C(=O)O (stereo not given)
38 | 50 to 52 °C | COC(=O)c1ccc(F)c(CBr)c1
39 | 135 to 137 °C | O=C(O)c1cc([N+](=O)[O-])cnc1Br
40 | 88 to 90 °C | CCNCC(=O)Nc1ccc(OC)cc1
41 | 158 to 160 °C | NNc1ccncc1Cl
42 | 227 to 229 °C | NC(=S)Cc1nnc2n1CCCCC2
43 | 177 to 179 °C | CS(=O)Cc1c(C(=O)O)oc2ccccc12 (stereo not given)
44 | 37 to 39 °C | COC(=O)C1COc2ccccc2O1 (stereo not given)
45 | 111 to 113 °C | N#Cc1cccnc1NCc1ccccc1Cl
46 | 188 to 190 °C | CS(=O)(=O)Cc1cccc(C(=O)O)c1
47 | 259 to 261 °C | Cc1cc(C(F)(F)F)c2c(C)c(C(=O)O)sc2n1
48 | 60 to 62 °C | CC(=O)c1c(C)nn(-c2ccccc2)c1C
49 | 52 to 54 °C | CC(N)c1ccc(OCc2ccc(F)cc2)cc1 (stereo not given)
50 | 134 to 136 °C | Cn1cc(S(=O)(=O)NN)c(=O)n(C)c1=O
51 | 69 to 71 °C | Cc1cc2cc(Br)ccc2s1
52 | 85 to 87 °C | Cc1cccc(OC(C)C(=O)O)c1 (stereo not given)

Row | melting point | SMILES
53 | 144 to 146 °C | Nc1nc(C2CC2)ns1
54 | 79 to 81 °C | COC(=O)C1CCc2[nH]ncc2C1 (stereo not given)
55 | 93 to 95 °C | COc1cccc(C(C[N+](=O)[O-])c2c[nH]c3ccccc23)c1 (stereo not given)
56 | 189 to 191 °C | NC(=O)NC1(C(=O)O)CC1
57 | 170 to 172 °C | NNC(=O)COc1ccc(Br)cc1
58 | 211 to 213 °C | COc1cc(F)cc(C(=O)O)c1N
59 | 134 to 136 °C | N#Cc1cccc(N2C(=O)CCC2=O)c1
60 | 101 to 104 °C | CCC(C)C(=O)NCC(=O)O (stereo not given)
61 | 117 to 119 °C | Cc1c(O)cccc1OCCN1CCOCC1
62 | 159 to 161 °C | Cc1cccc(COc2ccc(S(N)(=O)=O)cc2)c1
63 | 62 to 64 °C | CNC(C)c1ccc(-n2cnc3ccccc32)cc1 (stereo not given)
64 | 94 to 96 °C | O=C(O)c1cccc(C(F)(F)C(F)(F)F)c1
65 | 75 to 77 °C | Clc1nccc2ccn(Cc3ccccc3)c12
66 | 138 to 140 °C | CC(O)C(NC(=O)C1CC1C)C(=O)O (stereo not given)
67 | 240 to 242 °C | O=C1C2C3CC4C2C(=O)C2C1C3C42 (stereo not given)
68 | 126 to 128 °C | O=[N+]([O-])c1cc(Cl)cc(Br)c1O
69 | 154 to 156 °C | COc1ccc(OCC(=O)O)c(C=O)c1
70 | 204 to 206 °C | NNC(=O)c1cc2sccc2cn1
71 | 225 to 227 °C | NNS(=O)(=O)c1ccc(Br)cc1
72 | 118 to 120 °C | CC(C)(C#N)S(=O)(=O)c1ccc(Br)cc1
73 | 196 to 198 °C | CC(=O)NC1(C(=O)O)CCCCCC1
74 | 95 to 97 °C | Nc1ccc(Cl)c(C(=O)NCc2ccccc2F)c1
75 | 145 to 147 °C | NNc1ccc([N+](=O)[O-])cc1Cl
76 | 34 to 36 °C | Cc1ccc(Br)c2cccnc12
77 | 136 to 138 °C | CN(Cc1nn[nH]n1)C(=O)c1ccccc1
78 | 144 to 146 °C | Cc1nn(C)c2ncc(SC(=O)N(C)C)cc12

Row | melting point | SMILES
79 | 99 to 101 °C | CC1Oc2c(ccc(Cl)c2Cl)C1=O (stereo not given)
80 | 135 to 137 °C | CCOC(=O)c1ccc(S)nc1
81 | 239 to 241 °C | O=C(O)Cn1cc(Br)ccc1=O
82 | 116 to 118 °C | CCOc1ccc(CC(CN)C(N)=O)cc1 (stereo not given)
83 | 151 to 153 °C | CCOC(=O)c1nnn(-c2cccc([N+](=O)[O-])c2)c1N
84 | 195 to 197 °C | COCCn1c(S)nc2cc(Cl)ccc21
85 | 57 to 59 °C | O=C1c2ccccc2C(=O)N1CCCCCCO
86 | 91 to 93 °C | O=C(O)CCN1CCSC1=O
87 | 92 to 94 °C | O=C(O)C1(c2cccc(C(F)(F)F)c2)CCC1
88 | 90 to 92 °C | CCCOc1ccc(C#N)cc1OC
89 | 87 to 89 °C | CS(=O)(=O)c1cccc(C(=O)c2cc(F)ccc2F)c1
90 | 149 to 151 °C | O=C1c2ccccc2C(=O)N1c1cnn(Cc2ccccc2)c1
91 | 65 to 67 °C | CC(Oc1cccc(C=O)c1)C(=O)O (stereo not given)
92 | 282 to 284 °C | O=c1ccn2ncnc2[nH]1
93 | 104 to 106 °C | CCS(=O)(=O)c1ccc(S(=O)(=O)Cl)cc1
94 | 30 to 32 °C | O=C(NCCCCl)OCc1ccccc1
95 | 180 to 182 °C | O=C(O)c1ccc(F)c(S(=O)(=O)N2CCC2)c1
96 | 89 to 91 °C | Oc1cc(Br)ccc1C(F)(F)F
97 | 163 to 165 °C | O=C1C(=O)N(Cc2ccc(Cl)cc2)c2ccccc21
98 | 139 to 141 °C | Clc1ccc2nnc(C3CCCO3)n2n1 (stereo not given)
99 | 84 to 86 °C | O=C(Nc1cccc(Br)n1)c1ccccc1
100 | 169 to 173 °C | Cc1nc(Cl)c2c(-c3ccccc3)csc2n1
101 | 131 to 133 °C | CC(C)N1N=C(C(=O)O)CCC1=O

Row | SMILES | melting point
102 | O=C(CCl)NCC1CCSCC1 | 83 to 85 °C
103 | Cc1cc(C(=O)O)nn1C(C)(C)C | 143 to 145 °C
104 | CCCC(CN)C(=O)O (stereo not given) | 219 to 221 °C
105 | Fc1ccc(C2CNCCO2)cc1 (stereo not given) | 56 to 58 °C
